Test results from US20240050513A1, “COMPOSITION FOR PREVENTING, AMELIORATING, OR TREATING DISEASE CAUSED BY PROTEIN NITRATION […] WITH TERMINAL TYROSINE AS EFFECTIVE COMPONENT” (INDUSTRY-ACADEMIC COOPERATION FOUNDATION GYEONGSANG …, priority 2021, published 2024).

Assays:
[1] = system: glutamine synthetase (GS); assay: GS activity and GS tyrosine nitration in PFC, chronic immobilization stress model; type: in vivo, C57BL/6 mice; conditions: stress group
Experimental: Using the prefrontal cortex (PFC) lysate samples from mice obtained after the completion of chronic immobilization stress, GS activity and GS expression level were measured by following the method described above.
Furthermore, the level of tyrosine nitration within GS was measured by using immunoprecipitation (IP)-WB. The immunoprecipitation analysis of tyrosine-nitrated GS was performed using an anti-nitrotyrosine antibody (ab61392, Abcam) and Protein A/G PLUS-Agarose (Santa Cruz) according to the manufacturer's protocol.

[2] = system: chronic immobilization stress C57BL/6 mice; conditions: stress group, peptide diet vs normal diet
Experimental: A total of 28 male C57BL/6 mice at 7 weeks of age were divided into two groups: a control group (CTL) and a stress group (STR). The stress group was subjected to chronic immobilization stress for 15 days. Specifically, each mouse in the stress group was individually placed in a restrainer for 2 hours daily from […] to induce chronic immobilization stress. The control group (CTL) and stress group (STR) were further classified based on their diets. […] After the completion of the 15-day chronic immobilization stress, the mice were subjected to a sucrose preference test (SPT). Blood samples and prefrontal cortex (PFC) tissues were collected from the mice for subsequent test.
For the analysis of anti-depressive effect, blood and PFC tissues were collected from mice that underwent chronic immobilization stress. The blood collected from mice was centrifuged at 1,000×g for 10 minutes at 4° C. to separate the plasma, and the supernatant was collected and diluted 1/20 with PBS to prepare a sample. The corticosterone concentration in the plasma was then measured using the Corticosterone EIA kit (Cayman) by following the manufacturer's instructions.
In addition, the plasma diluted with PBS at a ⅓ ratio and the PFC tissue lysate (50 μg) were prepared. The ROS/RNS (reactive oxygen species/reactive nitrogen species) level in the plasma and PFC tissues was measured using the ROS/RNS assay kit (Cell Biolabs) according to the manufacturer's instructions.
In addition, the depression was evaluated by measuring the sucrose preference of mice that had undergone 15 days of chronic immobilization stress. The sucrose preference test was conducted over a total of 4 days. Equal amounts of 0.1 M sucrose solution and water were provided in identical bottles of the same size and shape. On the first day, mice were given access to 0.1 M sucrose solution and water for 24 hours. On the second day, the positions of the sucrose solution and water bottles were switched, and mice were given access for 24 hours. On the third day, no sucrose solution or water was provided. On the fourth day, mice were again given access to equal amounts of 0.1 M sucrose solution and water for 3 hours, the positions were then switched, and access was provided for another 3 hours. The amount of sucrose solution and water consumed during the 6-hour period on the fourth day was measured, and the sucrose preference (%) was calculated according to the following formula.
Sucrose preference (%)=Sucrose intake amount/(Water intake amount+Sucrose intake amount)×100

[3] = system: 3xTG-AD mice; assay: Cognitive function (ORT) and hippocampal ROS/RNS in Alzheimer's disease model; type: in vivo, mouse; conditions: 1xYQ diet
Experimental: To analyze the long-term memory capacity of animals following the peptide diet of the present invention, both the object recognition test (ORT) and object location recognition test (OLT) were conducted (FIG. 1). The tests consisted of three phases: habituation, familiarization, and test. During the habituation phase, the animals were acclimated to the testing apparatus for 10 minutes per day over two days. On the third day at the familiarization phase, the animals were allowed to explore two identical objects for 10 minutes. Subsequently, on the fourth day at the test phase, one of the objects was replaced with a novel object, and the animals were allowed to explore for 10 minutes, with result recorded during the initial 5 minutes was used as test data. The object recognition test (ORT) index was calculated using the following formula.
Discrimination index=(N−F)/(N+F) • N: Time spent for exploring new object • F: Time spent for exploring familiar object
The cognitive function of a 2-month-old mouse 3xTG-AD, which is a mouse model of modified Alzheimer's disease gene, and a 2-month-old normal C57BL/6 mouse was examined. After the examination, both were divided into two groups, and they were fed with either a normal diet (ND) or a diet supplemented with tyrosine-containing peptide (1xYQ). […]

[4] = system: glutamine synthetase (GS); assay: Hippocampal glutamine synthetase activity in kainic acid epileptic seizure model
Experimental: Kainic acid (KA) was dissolved in saline by heating in a water bath, resulting in a 4.5 mg/ml KA solution. The resulting KA solution was then intraperitoneally injected at a dose of 36 mg/kg, and seizure level and symptoms were recorded for 2 hours. The brain tissues (prefrontal cortex and hippocampus) of the mice that survived 16 hours or 5 days after the KA injection were collected.
To a 96-well plate, 2 μl of hippocampal homogenate was added, and 50 μl of 50 mM imidazole-HCl buffer (pH 6.8) were added to adjust the volume to 50 μl. Then, 50 μl of GS assay buffer (50 mM imidazole-HCl, pH 6.8, 25 mM L-glutamine, 12.5 mM hydroxylamine, 12.5 mM sodium arsenate, 1 mM MnCl2, and 0.08 mM ADP) were added and the reaction was allowed to occur at 37° C. for approximately 40 minutes. […] To terminate the reaction, 100 μl of stop solution (90 mM FeCl3, 1.8 N HCl, and 1.45% w/v trichloroacetic acid) were added to both the samples and the standard substance, and the absorbance was measured at 560 nm. The GS activity in each sample was determined by comparing it with the standard curve. GS activity was expressed as the generation amount of γ-glutamylhydroxamate, which is produced as a final product, and described in unit of μM/min/μg protein.

Q: tyrosine-glutamine [YQ] was tested. Which “tyrosine nitration level of GS” value ([1]; IP-WB, peptide diet vs normal diet) did it give?
A: Its value is “statistically significant decrease”.

Q: What about the GS activity ([1]; peptide diet (330 mg/kg) vs normal diet) of the same substance?
A: Its GS activity is “statistically significant increase”.

Q: What about the “ROS/RNS level in PFC tissue” value [2] of the same substance?
A: Its value is “decreased”.

Q: And the sucrose preference [2]?
A: Its sucrose preference is “increased”.

Q: And the “cognitive function (ORT)” value ([3]; dementia animal model 3xTG-AD, 2 to 8 months of age)?
A: Its value is “slight improvement”.

Q: And the “ROS/RNS level in the hippocampal tissues” value ([3]; dementia animal model)?
A: Its value is “decrease”.

Q: And the “activity of glutamine synthetase” value ([4]; kainic acid-treated animals, YQ i.p vs normal diet)?
A: Its value is “statistically significantly increased”.

Q: And the “activity of the glutamine synthetase in the hippocampal tissue” value ([4]; survived mice after kainic acid, 3xYQ)?
A: Its value is “increased”.
